From PubChem BioAssay AID248 (DTP/NCI, 2004)
“And” between values parts separate entries of the source, which are not always exact repeats. Equal entries are not always repeated. Toxic doses and inconclusive results are not listed.

System: L1210 leukemia ip in BDF1 mice, survival T/C
Assay: NCI In Vivo Anticancer Drug Screen. Data for tumor model L1210 Leukemia (intraperitoneal) in B6D2F1 (BDF1) mice
Conditions: endpoint: mean survival time, higher = longer survival
Procedure, shortened: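 Read-out is survival time, reported as the treated-group measurement over the vehicle-control measurement.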

[1] = dose: 25.0 mg/kg/injection, schedule: Q04DX003 (ip), vehicle: saline
[2] = dose: 50.0 mg/kg/injection, schedule: Q01DX009 (ip), vehicle: Klucel (hydroxypropylcellulose) (HPC)
[3] = dose: 100.0 mg/kg/injection, schedule: Q01DX009 (ip), vehicle: Klucel (hydroxypropylcellulose) (HPC)
[4] = dose: 100.0 mg/kg/injection, schedule: Q04DX003 (ip), vehicle: saline with Tween-80
[5] = dose: 200.0 mg/kg/injection, schedule: Q04DX003 (ip), vehicle: saline with Tween-80
[6] = dose: 400.0 mg/kg/injection, schedule: Q04DX003 (ip), vehicle: saline with Tween-80
[7] = dose: 12.5 mg/kg/injection, schedule: Q01DX009 (ip), vehicle: saline
[8] = dose: 12.5 mg/kg/injection, schedule: Q04DX003 (ip), vehicle: Klucel (hydroxypropylcellulose) (HPC)
[9] = dose: 25.0 mg/kg/injection, schedule: Q01DX009 (ip), vehicle: saline
[10] = dose: 25.0 mg/kg/injection, schedule: Q04DX003 (ip), vehicle: Klucel (hydroxypropylcellulose) (HPC)
[11] = dose: 50.0 mg/kg/injection, schedule: Q01DX009 (ip), vehicle: saline
[12] = dose: 50.0 mg/kg/injection, schedule: Q04DX003 (ip), vehicle: Klucel (hydroxypropylcellulose) (HPC)
[13] = dose: 100.0 mg/kg/injection, schedule: Q01DX001 (ip), vehicle: saline
[14] = dose: 6.25 mg/kg/injection, schedule: Q01DX009 (ip), vehicle: saline with Tween-80
[15] = dose: 100.0 mg/kg/injection, schedule: Q04DX002 (ip), vehicle: Klucel (hydroxypropylcellulose) (HPC)
[16] = dose: 200.0 mg/kg/injection, schedule: Q04DX002 (ip), vehicle: Klucel (hydroxypropylcellulose) (HPC)
[17] = dose: 400.0 mg/kg/injection, schedule: Q04DX002 (ip), vehicle: Klucel (hydroxypropylcellulose) (HPC)
[18] = dose: 200.0 mg/kg/injection, schedule: Q01DX009 (ip), vehicle: Klucel (hydroxypropylcellulose) (HPC)

Cc1ccc2c(c1)N(CCCN(C)C)c1ccccc1S2
T/C (dose: 12.5 mg/kg/injection, schedule: Q04DX003 (ip), vehicle: saline): 102 % of control | T/C [1]: 116 % of control

O=c1oc(-c2ccccc2)n[n+]([O-])c1-c1ccccc1
T/C [2]: 98 % of control | T/C [3]: 98 % of control

CCOC(=O)c1sc(SSc2nc(C)c(C(=O)OCC)s2)nc1C
T/C [4]: 102 % of control | T/C [5]: 94 % of control | T/C [6]: 91 % of control

CCCNC(C)(C)C(SSSC(c1cccs1)C(C)(C)NCCC)c1cccs1 (stereo not drawn)
T/C [7]: 101 % of control | T/C [8]: 96 % of control | T/C [9]: 95 % of control | T/C [10]: 106 % of control | T/C [11]: 92 % of control | T/C [12]: 96 % of control | T/C (dose: 75.0 mg/kg/injection, schedule: Q01DX009 (ip), vehicle: Klucel (hydroxypropylcellulose) (HPC)): 98 % of control | T/C (dose: 75.0 mg/kg/injection, schedule: Q01DX009 (ip), vehicle: saline): 88 % of control | T/C (dose: 115.0 mg/kg/injection, schedule: Q01DX009 (ip), vehicle: Klucel (hydroxypropylcellulose) (HPC)): 97 % of control | T/C (dose: 170.0 mg/kg/injection, schedule: Q01DX009 (ip), vehicle: Klucel (hydroxypropylcellulose) (HPC)): 96 % of control | T/C (dose: 170.0 mg/kg/injection, schedule: Q01DX009 (ip), vehicle: saline): 89 % of control

CCCCCCCC(C)NCCO (stereo not drawn)
T/C (dose: 75.0 mg/kg/injection, schedule: Q01DX001 (ip), vehicle: carboxymethylcellulose (CMC)): 98 % of control

CCC(Cl)COP(=O)(OCC(Cl)CC)C(CC)OP(=S)(OCC(Cl)CC)OCC(Cl)CC (stereo not drawn)
T/C (dose: 87.5 mg/kg/injection, schedule: Q01DX009 (ip), vehicle: Klucel (hydroxypropylcellulose) (HPC)): 95 % of control | T/C (dose: 175.0 mg/kg/injection, schedule: Q01DX009 (ip), vehicle: Klucel (hydroxypropylcellulose) (HPC)): 99 % of control

Nc1ncnc2c1ncn2C1OC(COC(=O)C2C3CC4CC(C3)CC2C4)C(O)C1O (stereo not drawn)
T/C [13]: 104 % of control

CCOC(Cl)CCl (stereo not drawn)
T/C [14]: 106 % of control | T/C (dose: 12.5 mg/kg/injection, schedule: Q01DX001 (ip), vehicle: saline with Tween-80): 97 % of control | T/C (dose: 12.5 mg/kg/injection, schedule: Q01DX009 (ip), vehicle: saline with Tween-80): 100 % of control | T/C (dose: 25.0 mg/kg/injection, schedule: Q01DX001 (ip), vehicle: saline with Tween-80): 97 % of control | T/C (dose: 25.0 mg/kg/injection, schedule: Q01DX009 (ip), vehicle: saline with Tween-80): 108 % of control | T/C (dose: 50.0 mg/kg/injection, schedule: Q01DX001 (ip), vehicle: saline with Tween-80): 93 % of control and 105 % of control | T/C (dose: 50.0 mg/kg/injection, schedule: Q01DX009 (ip), vehicle: saline with Tween-80): 101 % of control

CC(=O)c1ccc(Oc2ccc(C(C)=O)cc2)cc1
T/C (dose: 50.0 mg/kg/injection, schedule: Q01DX001 (ip), vehicle: carboxymethylcellulose (CMC)): 103 % of control | T/C (dose: 100.0 mg/kg/injection, schedule: Q01DX001 (ip), vehicle: carboxymethylcellulose (CMC)): 105 % of control | T/C [15]: 106 % of control | T/C (dose: 200.0 mg/kg/injection, schedule: Q01DX001 (ip), vehicle: carboxymethylcellulose (CMC)): 92 % of control | T/C [16]: 102 % of control | T/C (dose: 400.0 mg/kg/injection, schedule: Q01DX001 (ip), vehicle: carboxymethylcellulose (CMC)): 92 % of control | T/C [17]: 91 % of control

c1ccc2c(c1)OC1(CCSCC1)O2
T/C [4]: 98 % of control | T/C [5]: 95 % of control | T/C [6]: 97 % of control

CCCCCCCCCCCCOCCC(=O)O
T/C (dose: 75.0 mg/kg/injection, schedule: Q01DX001 (ip), vehicle: saline): 100 % of control | T/C (dose: 150.0 mg/kg/injection, schedule: Q01DX001 (ip), vehicle: saline): 94 % of control | T/C (dose: 300.0 mg/kg/injection, schedule: Q01DX001 (ip), vehicle: saline): 94 % of control

NC(=S)N/N=C\c1ccccn1
T/C [14]: 123 % of control | T/C (dose: 6.25 mg/kg/injection, schedule: Q04DX003 (ip), vehicle: saline with Tween-80): 103 % of control | T/C (dose: 8.0 mg/kg/injection, schedule: Q01DX009 (ip), vehicle: saline with Tween-80): 160 % of control | T/C (dose: 12.0 mg/kg/injection, schedule: Q01DX009 (ip), vehicle: saline with Tween-80): 165 % of control | T/C (dose: 12.5 mg/kg/injection, schedule: Q04DX003 (ip), vehicle: saline with Tween-80): 102 % of control | T/C (dose: 25.0 mg/kg/injection, schedule: Q04DX003 (ip), vehicle: saline with Tween-80): 98 % of control

CCCNC(=O)Nc1ccc(OCC)cc1
T/C [15]: 105 % of control | T/C [16]: 115 % of control | T/C [17]: 105 % of control

COc1ccc2nc3ccccc3c(NCCNCCO)c2c1
T/C (dose: 5.0 mg/kg/injection, schedule: Q01DX001 (ip), vehicle: saline): 97 % of control | T/C (dose: 6.0 mg/kg/injection, schedule: Q01DX Z (ip), vehicle: carboxymethylcellulose (CMC)): 98 % of control | T/C (dose: 9.0 mg/kg/injection, schedule: Q01DX Z (ip), vehicle: carboxymethylcellulose (CMC)): 92 % of control | T/C (dose: 10.0 mg/kg/injection, schedule: Q01DX001 (ip), vehicle: saline): 106 % of control | T/C (dose: 20.0 mg/kg/injection, schedule: Q01DX001 (ip), vehicle: saline): 101 % of control | T/C (dose: 40.0 mg/kg/injection, schedule: Q01DX001 (ip), vehicle: saline): 97 % of control | T/C (dose: 80.0 mg/kg/injection, schedule: Q01DX001 (ip), vehicle: saline): 92 % of control

CCNCCCCCCNCC
T/C [7]: 97 % of control | T/C [9]: 108 % of control | T/C [1]: 98 % of control | T/C [11]: 93 % of control | T/C (dose: 50.0 mg/kg/injection, schedule: Q04DX003 (ip), vehicle: saline): 107 % of control | T/C (dose: 100.0 mg/kg/injection, schedule: Q04DX003 (ip), vehicle: saline): 87 % of control

CC(=O)OCC1OC(Oc2c(C)cc([N+](=O)[O-])cc2[N+](=O)[O-])C(OC(C)=O)C(OC(C)=O)C1OC(C)=O (stereo not drawn)
T/C [4]: 94 % of control | T/C [5]: 100 % of control | T/C [6]: 100 % of control

CC(=O)OCC(OC(C)=O)C1(O)CCC2C3CCC4=CC(=O)CCC4(C)C3CCC21C (stereo not drawn)
T/C [2]: 100 % of control | T/C [3]: 94 % of control and 107 % of control | T/C [18]: 93 % of control

N#CCCSCCSCCC#N
T/C [3]: 95 % of control | T/C [18]: 97 % of control | T/C (dose: 400.0 mg/kg/injection, schedule: Q01DX009 (ip), vehicle: Klucel (hydroxypropylcellulose) (HPC)): 101 % of control

[O-][n+]1onc2ncccc21
T/C [10]: 108 % of control | T/C [12]: 94 % of control | T/C (dose: 100.0 mg/kg/injection, schedule: Q04DX003 (ip), vehicle: Klucel (hydroxypropylcellulose) (HPC)): 100 % of control and 102 % of control

CCC1C(=O)OCc2c1cc(C(=O)OC)n(C)c2=O (stereo not drawn)
T/C (dose: 25.0 mg/kg/injection, schedule: Q01DX001 (ip), vehicle: other): 111 % of control | T/C (dose: 50.0 mg/kg/injection, schedule: Q01DX001 (ip), vehicle: other): 108 % of control | T/C (dose: 100.0 mg/kg/injection, schedule: Q01DX001 (ip), vehicle: other): 93 % of control | T/C (dose: 200.0 mg/kg/injection, schedule: Q01DX001 (ip), vehicle: other): 93 % of control

Cc1c(Cl)cc(Cl)c2ncccc12
T/C [8]: 95 % of control | T/C [10]: 86 % of control | T/C [12]: 96 % of control

CCCCNC(C)(C)COC(=O)/C=C/c1ccc(OCCCC)cc1
T/C (dose: 50.0 mg/kg/injection, schedule: Q04DX003 (ip), vehicle: saline with Tween-80): 92 % of control | T/C [13]: 104 % of control | T/C (dose: 100.0 mg/kg/injection, schedule: Q01DX015 (ip), vehicle: saline): 86 % of control | T/C [4]: 94 % of control | T/C (dose: 200.0 mg/kg/injection, schedule: Q01DX001 (ip), vehicle: saline): 102 % of control | T/C (dose: 200.0 mg/kg/injection, schedule: Q01DX015 (ip), vehicle: saline): 89 % of control | T/C [5]: 105 % of control

CCCCCCCC/C=C\CCCCCCCC(=O)OCCCCCCCCCCCCC
T/C (dose: 100.0 mg/kg/injection, schedule: Q01DX009 (ip), vehicle: saline sonified): 91 % of control | T/C (dose: 200.0 mg/kg/injection, schedule: Q01DX009 (ip), vehicle: saline sonified): 102 % of control | T/C (dose: 400.0 mg/kg/injection, schedule: Q01DX009 (ip), vehicle: saline sonified): 93 % of control
